Measurements published in article PMC8318587, “Structure-guided microbial targeting of antistaphylococcal prodrugs” (eLife, 2021).
Values after ≈ are worked out from the molar mass of the structure shown. Where two headings read alike, the source gives them in different places.

Experiments:
[1] = system: S. aureus (JE2, NTML transposon mutants, Newman resistant isolates); experiment: POM-HEX half-maximal growth inhibitory concentration (IC50), microtiter broth dilution; assay type: cell-based; settings: Staphylococcus aureus
Description: Half-maximal inhibitory concentration (IC50) determination was performed using microtiter broth dilution in clear 96-well plates ([European Committee for Antimicrobial Susceptibility Testing (EUCAST) of the ES of CM and ID (ESCMID), 2000]). Briefly, POM-HEX was added to 75 µL LB media at a final concentration of 20–50 µM POM-HEX and 0.5% DMSO, with POM-HEX concentrations varying according to resistant strain. Subsequently, POM-HEX was serially diluted in LB media containing 0.5% DMSO for a total of 10 dilutions. Two wells were left without drug, one used to define 100% growth, and the other used to control for media contamination and to define 0% growth. Seventy-five microliters of mid-log phase S. aureus diluted to 1 × 10^5 colony forming units/mL were subsequently added to the plate. Following inoculation, plates were incubated at 37°C with shaking, and OD600 measurements were taken every 20 min for a total of 16 hr. Half-maximal inhibitory concentrations (IC50) were determined by fitting the OD600 of each condition following 10 hr of growth to a nonlinear regression using GraphPad Prism software. Experiments were performed in triplicate with technical duplicates.
Generation of POM-HEX resistant strains was performed by plating log-phase S. aureus Newman on LB agar containing 3.33 μM POM-HEX and incubating at 37°C overnight. Surviving single colonies were grown overnight in LB media and frozen in 10% glycerol for long term storage. All assays were performed from fresh overnight inoculations from glycerol stocks.

S. aureus Newman [2] = experiment: Minimum inhibitory concentration (MIC) in liquid LB media; assay type: cell-based; settings: Staphylococcus aureus, NEWMAN
Description: (§1) Antibiotic resistance frequency was determined on LB agar plates containing 4× and 10×, the minimum inhibitory concentrations of several antibiotics. MICs were determined for S. aureus Newman in liquid LB media. […] Briefly, S. aureus Newman was grown in LB media to late log-phase and centrifuged at 4000 × g for 15 min before resuspension at an OD600 nm of 30 (~1E11 CFU/mL) in LB media. One hundred microliter aliquots of concentrated S. aureus was plated in duplicate on selective and non-selective plates and incubated at 37°C. After 24 hr, mutation rates were calculated by counting the number of colonies present and dividing by the total number of colonies plated. Experiments were performed in triplicate.

S. aureus Newman [3] = assay type: cell-based, Staphylococcus aureus; settings: LB agar, 24 hr, mean ± SD
Description: as §1

GloB = system: GloB; design: method as in Mikati et al., 2020; settings: ref Mikati et al., 2020; cited from earlier work

Structure (SMILES): CC(C)(C)C(=O)OCOP(=O)(OCOC(=O)C(C)(C)C)C1CCCN(O)C1=O (stereo not shown) [POM-HEX]
- IC50 ([1]; 10 h, read-out: POM-HEX IC50, S. aureus JE2 parental strain, OD600 at 10 hr): 1540 nM
- IC50 ([1]; read-out: POM-HEX IC50, transposon mutant NE64 (hemY, SAUSA300_1781)): 1430 nM
- IC50 ([1]; read-out: POM-HEX IC50, transposon mutant NE145 (uvrA, SAUSA300_0742)): 1460 nM
- IC50 ([1]; read-out: POM-HEX IC50, transposon mutant NE202 (SAUSA300_1902)): 700 nM
- IC50 ([1]; read-out: POM-HEX IC50, transposon mutant NE223 (truA, SAUSA300_2173)): 1390 nM
- IC50 ([1]; read-out: POM-HEX IC50, transposon mutant NE293 (SAUSA300_1285)): 1410 nM
- IC50 ([1]; read-out: POM-HEX IC50, transposon mutant NE355 (gbaA, SAUSA300_2515)): 1730 nM
- IC50 ([1]; read-out: POM-HEX IC50, transposon mutant NE364 (SAUSA300_0671)): 1650 nM
- IC50 ([1]; read-out: POM-HEX IC50, transposon mutant NE377 (GloB, SAUSA300_1505)): 10600 nM
- IC50 ([1]; read-out: POM-HEX IC50, transposon mutant NE386 (rot, SAUSA300_1708)): 1400 nM
- IC50 ([1]; read-out: POM-HEX IC50, transposon mutant NE478 (phnE, SAUSA300_0142)): 1610 nM
- IC50 ([1]; read-out: POM-HEX IC50, transposon mutant NE503 (estA, FrmB, SAUSA300_2564)): 6280 nM
- IC50 ([1]; read-out: POM-HEX IC50, transposon mutant NE520 (proC, SAUSA300_1452)): 1470 nM
- IC50 ([1]; read-out: POM-HEX IC50, transposon mutant NE532 (SAUSA300_2473)): 1560 nM
- IC50 ([1]; read-out: POM-HEX IC50, transposon mutant NE541 (SAUSA300_0201)): 1600 nM
- IC50 ([1]; read-out: POM-HEX IC50, transposon mutant NE621 (SAUSA300_0581)): 1620 nM
- IC50 ([1]; read-out: POM-HEX IC50, transposon mutant NE812 (SAUSA300_0299)): 1640 nM
- IC50 ([1]; read-out: POM-HEX IC50, transposon mutant NE929 (mtlF, SAUSA300_2105)): 1700 nM
- IC50 ([1]; read-out: POM-HEX IC50, transposon mutant NE937 (fruC, SAUSA300_1993)): 1670 nM
- IC50 ([1]; read-out: POM-HEX IC50, transposon mutant NE949 (hsdM2, SAUSA300_1752)): 1730 nM
- IC50 ([1]; read-out: POM-HEX IC50, transposon mutant NE1039 (psuG, SAUSA300_0312)): 1730 nM
- IC50 ([1]; read-out: POM-HEX IC50, transposon mutant NE1071 (capD, SAUSA300_0538)): 1540 nM
- IC50 ([1]; read-out: POM-HEX IC50, transposon mutant NE1118 (dapD, SAUSA300_1290)): 1690 nM
- IC50 ([1]; read-out: POM-HEX IC50, transposon mutant NE1127 (lpl4, SAUSA300_0414)): 1720 nM
- IC50 ([1]; read-out: POM-HEX IC50, transposon mutant NE1173 (SAUSA300_1792)): 1840 nM
- IC50 ([1]; read-out: POM-HEX IC50, transposon mutant NE1225 (SAUSA300_0421)): 2150 nM
- IC50 ([1]; read-out: POM-HEX IC50, transposon mutant NE1238 (SAUSA300_0214)): 2080 nM
- IC50 ([1]; read-out: POM-HEX IC50, transposon mutant NE1283 (tnp, SAUSA300_0028)): 2100 nM
- IC50 ([1]; read-out: POM-HEX IC50, transposon mutant NE1296 (saeS, SAUSA300_0690)): 2070 nM
- IC50 ([1]; read-out: POM-HEX IC50, transposon mutant NE1486 (phoP, SAUSA300_1639)): 2180 nM
- IC50 ([1]; read-out: POM-HEX IC50, transposon mutant NE1505 (SAUSA300_0840)): 2200 nM
- IC50 ([1]; read-out: POM-HEX IC50, transposon mutant NE1519 (accC, SAUSA300_1563)): 1750 nM
- IC50 ([1]; read-out: POM-HEX IC50, transposon mutant NE1547 (SAUSA300_2508)): 1480 nM
- IC50 ([1]; read-out: POM-HEX IC50, transposon mutant NE1610 (pdhD, SAUSA300_0996)): 1230 nM
- IC50 ([1]; read-out: POM-HEX IC50, transposon mutant NE1682 (hlgB, SAUSA300_2367)): 1370 nM
- IC50 ([1]; read-out: POM-HEX IC50, transposon mutant NE1723 (SAUSA300_0094)): 1340 nM
- MIC (S. aureus Newman [2]): 3.13 µg/mL (≈ 7.39 µM)
- Mutational frequency at 4× MIC (S. aureus Newman [3]): 5.96 ± 1.60 E-07
- Mutational frequency at 10× MIC (S. aureus Newman [3]): 2.92 ± 0.57 E-07
- Prodrug activation product with GloB, in words (GloB): removes only one POM moiety
